One compound from patent US7951403B2, “Method of making pharmaceutical multiparticulates” (Pfizer Inc., priority 2003, dated 2011) can be followed below.

The data set can be described thus: Azithromycin dihydrate crystallinity in molten carrier mixtures with varying water, by PXRD. Format: physicochemical. As to the method:
Another way to determine the activity of volatile species in crystalline drug at the processing conditions is by measuring the change in the crystalline state of the drug as a function of the amount of volatile species present in the molten mixture. A series of blends of the crystalline drug, the carrier, and varying amounts of volatile species are prepared and placed into sealed containers. The containers are then heated to the processing temperature used to form the multiparticulates and held at this temperature for a period of time, such as 90 minutes. During this time, a sample of the container's atmosphere, i.e., the container's “headspace,” can be taken and the partial pressure of volatile species in the headspace can be measured using standard techniques, such as by gas chromatography. The containers are then cooled and the concentration of the desired crystalline form of the drug in each sample can be determined using standard techniques, as described below. The concentration of the desired crystalline form of the drug in the sample is then plotted versus the amount of volatile species included in the blend or the concentration of volatile species present in the headspace. […] The amount of the desired crystalline form of the drug in the samples and in multiparticulates can be determined using Powder X-Ray Diffraction (PXRD) analysis. In an exemplary procedure, PXRD analysis may be performed on a Bruker AXS D8 Advance diffractometer. In this analysis, samples of about 500 mg are packed in Lucite sample cups and the sample surface smoothed using a glass microscope slide to provide a consistently smooth sample surface that is level with the top of the sample cup. Samples are spun in the φ plane at a rate of 30 rpm to minimize crystal orientation effects. The X-ray source (S/B KCuα, λ=1.54 Å) is operated at a voltage of 45 kV and a current of 40 mA. Data for each sample are collected over a period of about 20 to 60 minutes in continuous detector scan mode at a scan speed of about 1 to 15 seconds/step and a step size of 0.02°/step. Diffractograms are collected over the 2θ range of 4° to 30°. The crystallinity of the test sample is determined by comparison with two or more calibration standards consisting of physical mixtures of crystalline drug and carrier. Each physical mixture is blended together 15 minutes on a Turbula mixer. Using the instrument software, the area under the diffractogram curve is integrated over the 2θ range using a linear baseline. This integration range includes as many drug-specific peaks as possible while excluding carrier-related peaks. A linear calibration curve of percent crystalline drug versus the area under the diffractogram curve is generated from the calibration standards. The crystallinity of the test sample is then determined using these calibration results and the area under the curve for the test sample. Results are reported as a mean percent drug crystallinity by crystal mass. The amount of water required to maintain the dihydrate form of azithromycin while forming multiparticulates by a melt-congeal process was determined as follows. The composition of the multiparticulates was 50 wt % azithromycin dihydrate, 46 wt % of the matrix excipient COMPRITOL 888 ATO (a mixture of 13 to 21 wt % glyceryl mono-behenate, 40 to 60 wt % glyceryl di-behenate, and about 35 wt % glyceryl tri-behenate from Gattefossé Corporation of Paramus, N.J.), and 4 wt % of the poloxamer dissolution enhancer PLURONIC F127 (polyoxyethylene-polyoxypropylene block copolymer, from BASF Corporation of Mt. Olive, N.J.). Mixtures of these materials containing varying amounts of water were prepared and analyzed by PXRD. To form each mixture, 100 g azithromycin dihydrate, 92 g of the COMPRITOL 888 ATO, and 8 g of the PLURONIC F127 were added to a water-jacketed stainless steel sealed vessel. Various amounts of water were added to each mixture to obtain varying water concentrations. […]

Turning to `CC[C@H]1OC(=O)[C@H](C)[C@@H](O[C@H]2C[C@@](C)(OC)[C@@H](O)[C@H](C)O2)[C@H](C)[C@@H](O[C@@H]2O[C@H](C)C[C@H](N(C)C)[C@H]2O)[C@](C)(O)C[C@@H](C)CN(C)[C@H](C)[C@@H](O)[C@]1(C)O` [Azithromycin Dihydrate, 9a-aza-9a-methyl-9-deoxo-9a-homoerythromycin A], the “Azithromycin Dihydrate Crystallinity” value was 57 wt % (Water in melt sample 0.35 wt %, same mixture, 90 min at 90° C.); 68 wt % (Water in melt sample 0.45 wt %, same mixture, 90 min at 90° C.); 91 wt % (Water in melt sample 1.88 wt %, same mixture, 90 min at 90° C.); 93 wt % (Water in melt sample 2.22 wt %, same mixture, 90 min at 90° C.); 95 wt % (Water in melt sample 3.08 wt %, 50/46/4 azithromycin dihydrate/COMPRITOL 888 ATO/PLURONIC F127, stirred 90 min at 90° C., sealed vessel). Further, the “water needed in the mixtures to maintain high levels of azithromycin dihydrate crystallinity in the melt” value (melt at 90° C., COMPRITOL 888 ATO/PLURONIC F127 carrier) is listed as “at least 2.2 wt %”.
